Reference: PMC6321168, “Comparative Study on Excretive Characterization of Main Components in Herb Pair Notoginseng-Safflower and Single Herbs by LC–MS/MS” (Pharmaceutics, 2018)

Assay: Fecal excretion study in rats after oral NS, SF or CNS (LC–MS/MS)
Format: in vivo
Settings: rat feces
Method: The animal room was set at constant temperature of 20 ± 2 °C with humidity of 50 ± 20% and 12/12 h light/dark cycle.
Eighteen male rats were fasted for 12 h before starting the experiment. The rats were divided into three groups at random (n = 6) and received NS (60 mg/kg), SF (50 mg/kg), and NS (60 mg/kg) + SF (50 mg/kg), respectively, by oral gavage. The rats were placed in separate metabolic cages. The urine samples were collected at 0–2, 2–4, 4–6, 6–8, 8–12, 12–24, 24–36, 36–48, 48–72, 72–96, and 96–120 h. The feces samples were collected at 0–4, 4–8, 8–12, 12–24, 24–36, 36–48, 48–72, 72–96, and 96–120 h. The urine volume was recorded and the dry feces were measured for each collection period. Samples were stored at −80 °C until analysis.
Feces samples were homogenized in ultrapure water (1 g/15 mL), soaked for 30 min, ultrasonically extracted for 30 min and centrifuged at 9000 rpm for 8 min. An aliquot of 200 μL feces water extraction solution was mixed with 10 μL of IS and then extracted three times with water-saturated n-BuOH (150 μL). The upper organic phase was combined and evaporated to dryness using a ZLS-2 vacuum centrifugal concentrator. The residue was treated as the urine sample and a 1-μL aliquot was injected for LC–MS analysis.
Ultra fast liquid chromatography (UFLC) analysis was performed using a Shimadzu UFLC system (DGU-20A3R Degasser; LC-20AD pump; SIL-20AXR Autosampler; CTO-20AC Column Oven) (Nakagyo-Ku, Koyoto, Japan). […] Because of the different endogenous substances in the urine and feces samples, different elution gradients were used to alleviate the matrix effects for the analytes.
The mass spectrometric detection was performed on an ABSciex 4500 Qtrap mass spectrometer (ABSciex, Foster City, CA, USA) equipped with a negative electrospray ionization (ESI) interface using multiple reaction monitoring (MRM). The MS parameters were optimized under the selected ion monitoring conditions as follows: curtain gas, 35 psi; ionspray voltage, 4500 V; turbo gas temperature, 450 °C; GS1, 45 psi; GS2, 45 psi. All data were acquired and analyzed by Analyst software (Versions 1.6.2) from ABSciex.
The accumulative excretion percentage was calculated for each analyte as follows. Excretion at time (t) = [concentration of the analyte (ng/mL) at t] × total urine (or feces) volume (mL) at t. The cumulative excretion up to time t (mg) was expressed as a percent (%) cumulative excretion by dividing by the total amount of the analyte ingested (mg): % Cumulative Excretion = 100 × (Σt excretiont) total ingested.

For `CC(C)=CCC[C@](C)(O[C@@H]1O[C@H](CO[C@@H]2O[C@H](CO)[C@@H](O)[C@H](O)[C@H]2O)[C@@H](O)[C@H](O)[C@H]1O)[C@H]1CC[C@]2(C)[C@@H]1[C@H](O)C[C@@H]1[C@@]3(C)CC[C@H](O[C@@H]4O[C@H](CO)[C@@H](O)[C@H](O)[C@H]4O[C@@H]4O[C@H](CO)[C@@H](O)[C@H](O)[C@H]4O)C(C)(C)[C@@H]3CC[C@]12C` [ginsenoside Rb1], the concentration at 4 h (male, Sprague Dawley, oral CNS 110 mg/kg, 4 h) was 555 ± 763 ng/mL, the concentration at 8 h (male, Sprague Dawley, oral CNS 110 mg/kg, 8 h) was 1080 ± 431 ng/mL and the concentration at 12 h (male, Sprague Dawley, oral CNS 110 mg/kg, 12 h) was 899 ± 96 ng/mL. The concentration at 24 h (male, Sprague Dawley, oral CNS 110 mg/kg, 24 h) was 802 ± 25 ng/mL, the concentration at 36 h (male, Sprague Dawley, oral CNS 110 mg/kg, 36 h) was 548 ± 36 ng/mL and the concentration at 48 h (male, Sprague Dawley, oral CNS 110 mg/kg, 48 h) was 552 ± 30 ng/mL. The concentration at 72 h (male, Sprague Dawley, oral CNS 110 mg/kg, 72 h) was 455 ± 377 ng/mL, the concentration at 96 h (male, Sprague Dawley, oral CNS 110 mg/kg, 96 h) was 21 ± 20 ng/mL and the concentration at 4 h (male, Sprague Dawley, oral NS 60 mg/kg, 4 h) was 1080 ± 156 ng/mL. The concentration at 8 h (male, Sprague Dawley, oral NS 60 mg/kg, 8 h) was 767 ± 29 ng/mL, the concentration at 12 h (male, Sprague Dawley, oral NS 60 mg/kg, 12 h) was 2060 ± 137 ng/mL and the concentration at 24 h (male, Sprague Dawley, oral NS 60 mg/kg, 24 h) was 2180 ± 90 ng/mL. The concentration at 36 h (male, Sprague Dawley, oral NS 60 mg/kg, 36 h) was 920 ± 48 ng/mL, the concentration at 48 h (male, Sprague Dawley, oral NS 60 mg/kg, 48 h) was 1020 ± 52 ng/mL and the concentration at 72 h (male, Sprague Dawley, oral NS 60 mg/kg, 72 h) was 120 ± 9 ng/mL. The concentration at 96 h (male, Sprague Dawley, oral NS 60 mg/kg, 96 h) was 19 ± 4 ng/mL, the concentration at 120 h (male, Sprague Dawley, oral NS 60 mg/kg, 120 h) was 17 ± 3 ng/mL and the Accumulative excretion amount (oral CNS 110 mg/kg, 4 h) was 7.072 ± 10.199 µg. The Accumulative excretion percentage (oral CNS 110 mg/kg, 4 h) was 0.192±0.275%, the Excretion amount (oral CNS 110 mg/kg, 4 h) was 7.072 ± 10.199 µg and the Accumulative excretion amount (oral CNS 110 mg/kg, 8 h) was 22.570 ± 15.790 µg. It also gave an Accumulative excretion percentage (oral CNS 110 mg/kg, 8 h) of 0.607±0.426%, an Excretion amount (oral CNS 110 mg/kg, 8 h) of 15.499 ± 6.228 µg and an Accumulative excretion amount (oral CNS 110 mg/kg, 12 h) of 36.062 ± 14.935 µg. The Accumulative excretion percentage (oral CNS 110 mg/kg, 12 h) was 0.968±0.409%, the Excretion amount (oral CNS 110 mg/kg, 12 h) was 13.492 ± 4.335 µg and the Accumulative excretion amount (oral CNS 110 mg/kg, 24 h) was 48.081 ± 16.475 µg. The Accumulative excretion percentage (oral CNS 110 mg/kg, 24 h) was 1.282±0.443%, the Excretion amount (oral CNS 110 mg/kg, 24 h) was 12.018 ± 3.497 µg and the Accumulative excretion amount (oral CNS 110 mg/kg, 36 h) was 56.222 ± 17.772 µg. For the same molecule, the Accumulative excretion percentage (oral CNS 110 mg/kg, 36 h) was 1.501±0.476%, the Excretion amount (oral CNS 110 mg/kg, 36 h) was 8.141 ± 2.259 µg and the Accumulative excretion amount (oral CNS 110 mg/kg, 48 h) was 64.538 ± 19.434 µg. The Accumulative excretion percentage (oral CNS 110 mg/kg, 48 h) was 1.723±0.522%, the Excretion amount (oral CNS 110 mg/kg, 48 h) was 8.316 ± 2.614 µg and the Accumulative excretion amount (oral CNS 110 mg/kg, 72 h) was 71.863 ± 19.005 µg. For the same molecule, the Accumulative excretion percentage (oral CNS 110 mg/kg, 72 h) was 1.923±0.515%, the Excretion amount (oral CNS 110 mg/kg, 72 h) was 7.325 ± 6.432 µg and the Accumulative excretion amount (oral CNS 110 mg/kg, 96 h) was 72.213 ± 19.048 µg. For the same molecule, the Accumulative excretion percentage (oral CNS 110 mg/kg, 96 h) was 1.931±0.512%, the Excretion amount (oral CNS 110 mg/kg, 96 h) was 0.350 ± 0.350 µg and the Accumulative excretion amount (oral CNS 110 mg/kg, 120 h) was 72.213 ± 19.048 µg. It also gave an Accumulative excretion percentage (oral CNS 110 mg/kg, 120 h) of 1.931±0.513%, an Accumulative excretion amount (oral NS 60 mg/kg, 4 h) of 15.357 ± 4.697 µg and an Accumulative excretion percentage (oral NS 60 mg/kg, 4 h) of 0.361±0.113%. The Excretion amount (oral NS 60 mg/kg, 4 h) was 15.357 ± 4.697 µg, the Accumulative excretion amount (oral NS 60 mg/kg, 8 h) was 26.423 ± 8.057 µg and the Accumulative excretion percentage (oral NS 60 mg/kg, 8 h) was 0.624±0.192%. It also gave an Excretion amount (oral NS 60 mg/kg, 8 h) of 11.066 ± 3.551 µg, an Accumulative excretion amount (oral NS 60 mg/kg, 12 h) of 56.148 ± 17.467 µg and an Accumulative excretion percentage (oral NS 60 mg/kg, 12 h) of 1.312±0.411%. For the same molecule, the Excretion amount (oral NS 60 mg/kg, 12 h) was 29.724 ± 9.595 µg, the Accumulative excretion amount (oral NS 60 mg/kg, 24 h) was 87.371 ± 26.505 µg and the Accumulative excretion percentage (oral NS 60 mg/kg, 24 h) was 2.043±0.622%. The Excretion amount (oral NS 60 mg/kg, 24 h) was 31.223 ± 9.132 µg, the Accumulative excretion amount (oral NS 60 mg/kg, 36 h) was 100.721 ± 31.049 µg and the Accumulative excretion percentage (oral NS 60 mg/kg, 36 h) was 2.354±0.725%. It also gave an Excretion amount (oral NS 60 mg/kg, 36 h) of 13.350 ± 4.715 µg, an Accumulative excretion amount (oral NS 60 mg/kg, 48 h) of 115.527 ± 36.105 µg and an Excretion amount (oral NS 60 mg/kg, 48 h) of 14.806 ± 5.076 µg. It also gave an Accumulative excretion amount (oral NS 60 mg/kg, 72 h) of 117.237 ± 36.600 µg, an Accumulative excretion percentage (oral NS 60 mg/kg, 72 h) of 2.731±0.854% and an Excretion amount (oral NS 60 mg/kg, 72 h) of 1.710 ± 0.525 µg. It also gave an Accumulative excretion amount (oral NS 60 mg/kg, 96 h) of 117.502 ± 36.686 µg, an Accumulative excretion percentage (oral NS 60 mg/kg, 96 h) of 2.741±0.854% and an Excretion amount (oral NS 60 mg/kg, 96 h) of 0.264 ± 0.103 µg. It also gave an Accumulative excretion amount (oral NS 60 mg/kg, 120 h) of 117.753 ± 36.774 µg, an Accumulative excretion percentage (oral NS 60 mg/kg, 120 h) of 2.745±0.858% and an Excretion amount (oral NS 60 mg/kg, 120 h) of 0.252 ± 0.100 µg.
